Data as given in patent publication US12594267B2, “Capsid inhibitors for the treatment of HIV” (Gilead Sciences, Inc., priority 2018, dated 2026).
Where two headings read alike, the source gives them in different places.

Experiment: PK after subcutaneous administration of solutions in dogs
Format: in vivo, Beagle dog
Settings: male, beagle, dog, plasma, sc, 12 mg/kg; for concentration at 336 h / concentration at 504 h / concentration at 672 h / concentration at 840 h / concentration at 1008 h / concentration at 1344 h / concentration at 1680 h / concentration at 1 h / concentration at 3 h / concentration at 8 h / concentration at 24 h / concentration at 48 h / concentration at 72 h / concentration at 96 h / concentration at 168 h: SC 12 mg/kg, 400 mg/mL in 15% water/85% PEG 300; for AUC(0-t): male beagle dog, single SC 12 mg/kg, 400 mg/mL in 85% PEG300 and 15% water, mean ± SD
Procedure: Formulations containing the compound of Formula (Ia) were prepared as aqueous solutions or oral formulations and administered subcutaneously to rats, dogs, cynomolgus monkey, and/or rhesus monkey.
A solution of the compound of Formula (Ia) in 10% ethanol, 13% water, and 77% PEG 200 (400 mg/mL) was prepared. The solution was administered subcutaneously to dogs at a dose of 12 mg/kg and rats at a dose of 50 mg/kg and the pharmacokinetic (PK) profile was determined. […] In both species, plasma concentrations of the compound of Formula (Ia) were maintained above the target trough concentration of 20 nM (corresponding to an IQ of 5) for at least 84 days (12 weeks).
A solution of the compound of Formula (Ia) in 15% water and 85.0 PEG 300 (400 mg/mL) was prepared. The solution was administered subcutaneously to male beagle dogs at a dose level of 12 mg/kg and dose volume of […] and the pharmacokinetic (PK) profile was determined.
A solution of the compound of Formula (a) sodium salt in water and 300 (300 mg/mL) was prepared that contained 22.6% water/50% PEG 300/1.1% NaOH/26.3% Formula (Ia). The solution was administered subcutaneously to male beagle dogs at a dose level of 12 mg/kg and dose volume of […] and the pharmacokinetic (PK) profile was determined.
A 300 mg/ml solution of a compound of Formula (Ia) having 9.8 w/w % water, 65.0 w/w % PEG 300, and 25.2 w/w % of the compound of Formula (Ia) was prepared. The solution was administered subcutaneously to rats at a dose of 50 mg/kg and to dogs at a dose of 12 mg/kg and the pharmacokinetic (PK) profile was determined. […] In the rat, plasma concentrations of the compound of Formula (Ia) were maintained above the target trough concentration of 20 nM for at least 168 days (24 weeks). In the dog, plasma concentrations of the compound of Formula (Ia) were maintained above the target trough concentration of 20 nM for at least 84 days (12 weeks).
(§1) A 150 mg/ml solution of a compound of Formula (Ia) having 27.92 w/w % water, 58.04 w/w % PEG 300, 13.47 w/w % of a compound of Formula (Ia), and 1.1 w/w % NaOH was prepared. The solution was administered subcutaneously to rats at a dose of 50 mg/kg and to dogs at a dose of 12 mg/kg and the pharmacokinetic (PK) profile was determined. […] In the rat, plasma concentrations of the compound of Formula (Ia) were maintained above the target trough concentration of 20 nM for at least 126 days (18 weeks). In the dog, plasma concentrations of the compound of Formula (Ia) were maintained above the target trough concentration of 20 nM for at least 56 days (8 weeks).
as §1, with “300” for “150”, “23.2” for “27.92”, “50.0” for “58.04”, “25.7” for “13.47”
A 50 mg/ml solution of a compound of Formula (Ia) having 30.07 w/w % water, 64.40 w/w % PEG 300, 4.68 w/w % of a sodium salt of the compound of Formula (Ia), and 0.85 w/w % poloxamer 188 was prepared. The solution was administered subcutaneously to rats at a dose of 50 mg/kg and to dogs at a dose of 6 mg/kg and the pharmacokinetic (PK) profile was determined. […] In the rat, plasma concentrations of the compound of Formula (Ia) were maintained above the target trough concentration of 20 nM for at least 28 days (4 weeks). In the dog, plasma concentrations of the compound of Formula (Ia) were maintained above the target trough concentration of 20 nM for at least 14 days (2 weeks). […]

SMILES: CC(C)(C#Cc1ccc(-c2ccc(Cl)c3c(NS(C)(=O)=O)nn(CC(F)(F)F)c23)c([C@H](Cc2cc(F)cc(F)c2)NC(=O)Cn2nc(C(F)(F)F)c3c2C(F)(F)[C@@H]2C[C@H]32)n1)S(C)(=O)=O [Formula (Ia), N—((S)-1-(3-(4-chloro-3-(methylsulfonamido)-1-(2,2,2-trifluoroethyl)-1H-indazol-7-yl)-6-(3-methyl-3-(methylsulfonyl)but-1-yn-1-yl)pyridin-2-yl)-2-(3,5-difluorophenyl)ethyl)-2-((3bS,4aR)-5,5-difluoro-3-(trifluoromethyl)-3b,4,4a,5-tetrahydro-1H-cyclopropa[3,4]cyclopenta[1,2-c]pyrazol-1-yl)acetamide]
- concentration at 336 h (dog #1): 135 nM
- concentration at 504 h (dog #1): 172 nM
- concentration at 672 h (dog #1): 93.1 nM
- concentration at 840 h (dog #1): 150 nM
- concentration at 1008 h (dog #1): 80.2 nM
- concentration at 1344 h (dog #1): 42.7 nM
- concentration at 1680 h (dog #1): 69.5 nM
- concentration at 1 h (dog #2): 1.2 nM
- concentration at 3 h (dog #2): 2.6 nM
- concentration at 8 h (dog #2): 15.5 nM
- concentration at 24 h (dog #2): 27.8 nM
- concentration at 48 h (dog #2): 60.6 nM
- concentration at 72 h (dog #2): 37.8 nM
- concentration at 96 h (dog #2): 28.8 nM
- concentration at 168 h (dog #2): 43.1 nM
- concentration at 336 h (dog #2): 64.7 nM
- concentration at 504 h (dog #2): 114 nM
- concentration at 672 h (dog #2): 81.5 nM
- concentration at 840 h (dog #2): 110 nM
- concentration at 1008 h (dog #2): 70.7 nM
- concentration at 1344 h (dog #2): 41.2 nM
- concentration at 1680 h (dog #2): 42.2 nM
- concentration at 1 h (dog #3): 1.2 nM
- concentration at 3 h (dog #3): 2.3 nM
- concentration at 8 h (dog #3): 9.2 nM
- concentration at 24 h (dog #3): 16.8 nM
- concentration at 48 h (dog #3): 13.2 nM
- concentration at 72 h (dog #3): 13.2 nM
- concentration at 96 h (dog #3): 10.4 nM
- concentration at 168 h (dog #3): 30.8 nM
- concentration at 336 h (dog #3): 53 nM
- concentration at 504 h (dog #3): 82.9 nM
- concentration at 672 h (dog #3): 56.9 nM
- concentration at 840 h (dog #3): 107 nM
- concentration at 1008 h (dog #3): 54.1 nM
- concentration at 1344 h (dog #3): 30.2 nM
- concentration at 1680 h (dog #3): 28.5 nM
- concentration at 3 h (dog mean, n=3): 2 nM
- concentration at 8 h (dog mean, n=3): 11.8 nM
- concentration at 24 h (dog mean, n=3): 21.5 nM
- concentration at 48 h (dog mean, n=3): 42.8 nM
- concentration at 72 h (dog mean, n=3): 37.9 nM
- concentration at 96 h (dog mean, n=3): 32.7 nM
- concentration at 168 h (dog mean, n=3): 48.6 nM
- concentration at 336 h (dog mean, n=3): 84.2 nM
- concentration at 504 h (dog mean, n=3): 123 nM
- concentration at 672 h (dog mean, n=3): 77.2 nM
- concentration at 840 h (dog mean, n=3): 122 nM
- concentration at 1008 h (dog mean, n=3): 68.3 nM
- concentration at 1344 h (dog mean, n=3): 38 nM
- concentration at 1680 h (dog mean, n=3): 46.7 nM
- concentration at 1 h (dog mean): 1.2 nM
- AUC(0-t) (n=3, read-out: AUC0-24h): 0.304 ± 0.082 µM·h
- AUC(0-t) (n=3, read-out: AUC0-48h): 1.08 ± 0.44 µM·h
- AUC(0-t) (n=3, read-out: AUC0-72h): 2.04 ± 0.98 µM·h
- AUC(0-t) (n=3, read-out: AUC0-168h): 5.82 ± 3.04 µM·h
- AUC(0-t) (n=3, read-out: AUC0-672h): 51.2 ± 21 µM·h
- AUC(0-t) (n=3, read-out: AUC0-1344h): 102 ± 30 µM·h
